In US20210161976A1, “BACTERIA ENGINEERED TO TREAT DISEASES THAT BENEFIT FROM REDUCED GUT INFLAMMATION AND/OR TIGHTENED GUT MUCOSAL BARRIER” (Synlogic Operating Company, Inc., priority 2016, published 2021):
Read-outs that look alike come from different tables or passages of the source. One block for each compound: values may come before it.

Columns and labels:
[1] = test system: PnsrR-GFP reporter construct; assay: Nitric oxide inducible PnsrR-GFP reporter construct, fluorescence in plate reader; type: cell-based, E. coli Nissle; details: DETA-NO, two-fold decreased inducer, 96-well, relative florescence units
[2] = test system: STAT3; assay: STAT3 activation in Colo205 cells by IL-22 containing supernatants; type: cell-based; details: average of 5 experiments
Procedure: To assess the biological activity of IL-22 produced by SYN3001 (IL-22 secreting strain), titrations of SYN3001 and SYN3000 (DOM mutant, non IL-22 secreting negative control strain) supernatants (starting at 150 ng/mL and titrated in 1:3 dilutions) were added to Colo205 cells and the activation of STAT3 was assessed. […] In contrast, SYN3000 had no effect on STAT3 activity.

[3] = target: T1, IL-22 (Homo sapiens, UniProt Q9GZX6); assay: Anti-IL-22 neutralizing antibody inhibition of STAT3 activation in Colo205 cells; type: cell-based; details: IC50 of anti-IL-22 neutralizing antibody against STAT3 activation by the listed IL-22 source (3 ng/mL)
T1 construct: IL-22 fused to a cleavable PhoA-secretion tag to mediate Sec-dependent secretion into the periplasm; PhoA secretion tag (21 amino acids) (N, cleaved yes); made in house; filtered culture supernatant
T1 sequence (Q9GZX6 34-179): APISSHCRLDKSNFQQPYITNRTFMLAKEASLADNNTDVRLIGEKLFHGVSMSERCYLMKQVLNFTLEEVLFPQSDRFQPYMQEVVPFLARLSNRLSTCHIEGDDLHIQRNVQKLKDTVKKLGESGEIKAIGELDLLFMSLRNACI
Procedure: To verify that the STAT3 activation elicited by supernatants from SYN3001 was indeed due to IL-22 signaling, Colo205 cells were stimulated with IL-22 supernatants derived from SYN3001 at 3 ng/mL in the presence of increasing concentrations of an anti-IL-22 neutralizing antibody. rLI-22 in the absence of the neutralizing antibody served as a positive control.

[4] = test system: HT-29 colon adenocarcinoma cells; assay: Cell viability assay in HT-29 cells (trypan blue, Cellometer K2); details: 4 days, data not shown
[5] = test system: LPS-induced IFNγ secretion; assay: LPS-induction of IFNγ cell-based assay in human PBMCs (ELISA)
Procedure: To assess the activity of the acetate-producing strain SYN2001 in vitro, we employed the LPS-induction of IFNγ cell-based assay. Frozen normal human PBMCs from two independent donors (Lot #'s A4956 and A4924) were plated in triplicate at 1×10^6 cells/mL in 96-well plates in complete media. The cells were then incubated for 15 minutes with media containing either a dilution series of synthetic acetate (40 mM-0.08 Mm), SYN2001 supernatant (30 mM-0.03 mM acetate concentrations based on LC-MS determination) or untreated (negative control). After the 15-minute incubation period, complete media containing LPS was added to the cells to a final concentration of 100 ng/mL and the cells were further incubated overnight under these conditions. The following day supernatants were harvested from each of the different conditions and the IFNγ levels assessed by ELISA. […] We noted that the absolute levels of IFNγ production in the SYN2001 experiments was higher than in the purified acetate experiments, likely due to residual additional LPS in the supernatants from the bacterially-derived acetate. Nonetheless, the IC50s observed for the two acetate sources were very similar.

[6] = target: T2, PXR (Mus musculus, UniProt O54915); details: in vivo; cited from earlier work
T2 sequence (O54915 1-431): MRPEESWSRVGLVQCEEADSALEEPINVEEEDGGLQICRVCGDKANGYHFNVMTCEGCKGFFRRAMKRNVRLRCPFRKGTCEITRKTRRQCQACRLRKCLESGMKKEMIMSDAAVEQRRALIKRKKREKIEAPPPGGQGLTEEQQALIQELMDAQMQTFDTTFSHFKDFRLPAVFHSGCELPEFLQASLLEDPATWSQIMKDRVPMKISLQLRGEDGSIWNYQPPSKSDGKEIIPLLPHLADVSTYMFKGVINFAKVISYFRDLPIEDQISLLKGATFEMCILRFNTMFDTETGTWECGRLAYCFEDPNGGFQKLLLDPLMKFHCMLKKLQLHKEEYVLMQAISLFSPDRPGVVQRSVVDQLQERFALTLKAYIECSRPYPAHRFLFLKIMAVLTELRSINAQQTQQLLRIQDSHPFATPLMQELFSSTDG

[7] = test system: Ptet-GFP reporter construct; assay: ATC-inducible Ptet-GFP reporter construct, fluorescence in plate reader; details: two-fold decreased inducer, 96-well, relative florescence units
[8] = test system: gut motility and inflammation; details: rats, early phase of acute colitis; cited from earlier work
[9] = test system: neutrophils; details: cited from earlier work

Compound: NCCN(CCN)/[N+]([O-])=N/O [NO, diethylenetriamine-nitric oxide adduct]
induction of GFP expression [1]: able to induce the expression of GFP

EC50 [2]: 1.56 ng/mL
IC50 [3]: 3.70 ng/mL
Compound: rIL-22

Compound: CCCC(=O)O [synthetic butyrate, butyrate]
effect on cell viability [4]: did not have any appreciable effect

Compound: CC(=O)O [Acetate]
EC50 ([5]; human PBMC, donor 1, 3 experiments in triplicate, LPS 100 ng/mL, read-out: EC50 on LPS-induced IFNγ secretion, Donor 1): 3120 µM
EC50 ([5]; human PBMC, donor 2, 3 experiments in triplicate, LPS 100 ng/mL, read-out: EC50 on LPS-induced IFNγ secretion, Donor 2): 2180 µM
LPS-induced secretion of IFNγ ([5]; primary human PBMC, two donors, FIG. 26G/26H): dose-dependent decrease

Compound: O=C(O)CCc1c[nH]c2ccccc12 [indole 3-propionic acid (IPA), indole 3-propionic acid]
PXR ligand [6]: ligand for PXR

Compound: anhydrous tetracycline [ATC]
induction of GFP expression [7]: able to induce the expression of GFP

Compound: CC(=O)O [Acetate (synthetic)]
EC50 ([5]; decrease of LPS-induced IFNγ, human PBMCs donor 1, LPS 100 ng/mL, acetate concentration, read-out: EC50-donor 1): 3120 µM
EC50 ([5]; decrease of LPS-induced IFNγ, human PBMCs donor 2, LPS 100 ng/mL, acetate concentration, read-out: EC50-donor 2): 2180 µM

Compound: O=C(O)c1cc(=O)c2ccccc2[nH]1 [kynurenic acid]
gut motility and inflammation [8]: decreased gut motility and inflammation

Compound: Nc1ccccc1C(=O)CC(N)C(=O)O (stereo not shown) [Kynurenine]
apoptosis in neutrophils [9]: induce apoptosis
